The values below come from ChEMBL document CHEMBL4616620, “Discovery and SAR of aryl hydroxy pyrimidinones as potent small molecule agonists of the GPCR APJ” (Bioorg Med Chem Lett, 2020).

For one data set, the target named is T1, Apelin receptor (Homo sapiens, UniProt P35414).
T1 sequence (P35414 whole entry): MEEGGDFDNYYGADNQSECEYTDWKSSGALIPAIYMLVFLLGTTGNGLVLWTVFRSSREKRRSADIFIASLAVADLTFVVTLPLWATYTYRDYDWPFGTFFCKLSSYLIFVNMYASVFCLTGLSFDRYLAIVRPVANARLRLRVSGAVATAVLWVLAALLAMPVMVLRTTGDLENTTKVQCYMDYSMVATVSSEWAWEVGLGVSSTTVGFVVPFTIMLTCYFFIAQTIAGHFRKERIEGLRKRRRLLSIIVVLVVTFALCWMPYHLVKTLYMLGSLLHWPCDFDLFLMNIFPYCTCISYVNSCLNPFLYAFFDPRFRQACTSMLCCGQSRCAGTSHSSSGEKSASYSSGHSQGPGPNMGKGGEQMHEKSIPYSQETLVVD
Nature of the data set: Agonist activity at human APJ expressed in HEK293 cells assessed as inhibition of forskolin-stimulated cAMP production. The format is functional, cell-based. On the technique in general: Cyclic AMP is a second messenger, typically raised through Gs and lowered through Gi signalling.

Data set [1] can be described thus: AUC in mouse at 10 mg/kg, po. The format is ADME, organism-based. As to conditions: in vivo.
Data set [2] addresses Voltage-gated inwardly rectifying potassium channel KCNH2 (Homo sapiens, UniProt Q12809). Nature of the data set: Inhibition of human ERG.
For data set [3], the target named is CYP450 (isoform not stated) (Homo sapiens, UniProt P04798+P05177+P05181+P08684+P10632+P10635+P11509+P11712+P13584+P20813+P20815+P20853+P24462+P24903+P33260+P33261+P51589+P78329+P98187+Q02928+Q08477+Q16678+Q16696+Q5TCH4+Q6VVX0+Q7Z449+Q8TAV3+Q96SQ9+Q9HB55). Nature of the data set: Inhibition of CYP450 (unknown origin). It is filed as ADME, protein assay.
Data set [4] is described as follows: Permeability of compound at pH 7.4 by PAMPA assay. It is filed as ADME. To be noted: read-out: permeability. (In general: In PAMPA a lipid-coated filter parts donor from acceptor wells.)
Data set [5] is described as follows: Permeability of compound at pH 5.5 by PAMPA assay. To be noted: read-out: permeability. The format is ADME.
Data set [6] in a line: Cmax in mouse at 10 mg/kg, po. The arrangement: dose 10 mg/kg, route oral. It is filed as ADME, organism-based. As to conditions: in vivo.
Data set [7] can be described thus: Tmax in mouse at 10 mg/kg, po. The format is ADME, organism-based. To be noted: in vivo.
In data set [8] the target is T2, Nuclear receptor subfamily 1 group I member 2 (Homo sapiens, UniProt O75469).
T2 sequence (O75469 whole entry): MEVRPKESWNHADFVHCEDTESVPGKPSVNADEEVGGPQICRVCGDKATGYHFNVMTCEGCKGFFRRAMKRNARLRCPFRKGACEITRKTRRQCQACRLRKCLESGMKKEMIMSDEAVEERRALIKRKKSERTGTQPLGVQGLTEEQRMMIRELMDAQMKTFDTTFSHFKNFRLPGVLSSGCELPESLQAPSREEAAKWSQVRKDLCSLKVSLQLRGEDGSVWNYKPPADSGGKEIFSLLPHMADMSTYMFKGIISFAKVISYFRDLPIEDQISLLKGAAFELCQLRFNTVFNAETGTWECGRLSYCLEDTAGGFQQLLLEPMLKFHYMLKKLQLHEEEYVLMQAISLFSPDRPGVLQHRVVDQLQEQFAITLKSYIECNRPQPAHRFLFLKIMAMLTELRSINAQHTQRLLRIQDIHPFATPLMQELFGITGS
Nature of the data set: Agonist activity at PXR (unknown origin).

Data set [9] concerns the target T3, Apelin receptor (Homo sapiens) (UniProt P35414).
T3 sequence (whole entry): T1 sequence (P35414 whole entry)
Nature of the data set: Agonist activity at human APJ expressed in HEK293 cells assessed as inhibition of forskolin-stimulated cAMP production at 10 uM relative to control. It is filed as functional, cell-based.

The structures appear in SMILES notation. “And” between values parts separate entries of the source, which are not always exact repeats. Identical values can stand only once.

Sequence of Voltage-gated inwardly rectifying potassium channel KCNH2 (Q12809 whole entry, canonical isoform): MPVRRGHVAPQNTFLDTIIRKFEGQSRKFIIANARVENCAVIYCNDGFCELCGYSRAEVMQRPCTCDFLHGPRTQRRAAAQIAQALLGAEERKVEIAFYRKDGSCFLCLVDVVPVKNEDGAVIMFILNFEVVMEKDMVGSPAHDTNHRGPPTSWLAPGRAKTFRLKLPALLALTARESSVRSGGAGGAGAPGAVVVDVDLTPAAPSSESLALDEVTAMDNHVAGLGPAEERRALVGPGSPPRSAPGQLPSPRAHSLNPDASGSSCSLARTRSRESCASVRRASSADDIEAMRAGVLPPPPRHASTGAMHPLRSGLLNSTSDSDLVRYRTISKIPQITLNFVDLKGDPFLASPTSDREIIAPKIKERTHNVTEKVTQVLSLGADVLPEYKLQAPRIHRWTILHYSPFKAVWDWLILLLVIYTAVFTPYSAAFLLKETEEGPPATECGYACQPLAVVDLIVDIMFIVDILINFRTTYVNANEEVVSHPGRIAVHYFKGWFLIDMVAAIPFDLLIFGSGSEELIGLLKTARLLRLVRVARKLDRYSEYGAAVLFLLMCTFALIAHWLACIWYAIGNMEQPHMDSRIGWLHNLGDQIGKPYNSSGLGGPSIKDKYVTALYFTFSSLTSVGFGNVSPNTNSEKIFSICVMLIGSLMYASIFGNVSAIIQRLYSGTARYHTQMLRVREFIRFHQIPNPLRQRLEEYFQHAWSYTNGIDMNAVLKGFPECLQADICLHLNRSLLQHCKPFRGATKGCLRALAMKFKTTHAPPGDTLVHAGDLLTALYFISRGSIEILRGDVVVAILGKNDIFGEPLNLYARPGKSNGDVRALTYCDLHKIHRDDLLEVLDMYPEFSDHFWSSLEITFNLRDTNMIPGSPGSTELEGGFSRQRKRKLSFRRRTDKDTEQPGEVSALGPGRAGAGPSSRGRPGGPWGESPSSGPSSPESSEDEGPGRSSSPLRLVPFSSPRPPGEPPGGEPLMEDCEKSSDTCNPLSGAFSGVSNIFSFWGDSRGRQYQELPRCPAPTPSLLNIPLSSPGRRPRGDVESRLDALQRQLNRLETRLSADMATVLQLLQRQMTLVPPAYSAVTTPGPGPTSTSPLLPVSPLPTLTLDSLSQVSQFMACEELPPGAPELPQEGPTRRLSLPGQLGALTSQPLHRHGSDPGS

For `CCCSc1nc(=O)cc(O)n1-c1ccc(C)cc1`, the EC50 at Apelin receptor was determined as 260 nM.

Turning to `CCCSc1nc(=O)cc(O)n1-c1ccc(OC)cc1`, the concentration for a half-maximal effect (EC50) at Apelin receptor stood at 680 nM.

Consider `CCCSc1nc(=O)c(Cc2ccccc2)c(O)n1-c1ccccc1OC`, for which the EC50 at Apelin receptor is 340 nM.

With `C=CCc1c(O)n(-c2ccccc2OC)c(SCCC)nc1=O`, the concentration giving a half-maximal response (EC50) at Apelin receptor was 570 nM.

On to `CCCCc1nc(=O)c(Cc2ccc(OC)cc2)c(O)n1-c1c(OC)cccc1OC`, for which the EC50 on Apelin receptor came to 13 nM.

As to `CCCSc1nc(=O)cc(O)n1-c1ccccc1Br`, the EC50 on Apelin receptor is 155 nM.

In the case of `CCCCc1c(O)n(-c2ccccc2OC)c(SCCC)nc1=O`, at Apelin receptor, the EC50 was determined as 1700 nM.

In the case of `CCCCc1nc(=O)cc(O)n1-c1c(OC)cccc1OC`, at Apelin receptor, the EC50 turned out to be 11 nM.

On to `CCCSc1nc(=O)cc(O)n1-c1ccccc1C(F)(F)F`, for which the EC50 on Apelin receptor was determined as 90 nM.

With `CCCSc1nc(=O)cc(O)n1-c1ccccc1OC`, the exposure (AUC) in data set [1] worked out at 29 µM·h. For the same molecule, the IC50 was more than 80000 nM in [2] and more than 20000 nM in data set [3]. Further, the Papp is 13.1 ×10⁻⁶ cm/s in data set [4] and 23 ×10⁻⁶ cm/s in data set [5]. Further, the EC50 was 64 nM and 40 nM and 160 nM on Apelin receptor; more than 50000 nM in [8]. Besides, the peak level in data set [6] (Cmax) was 4.4 µM. Moreover, the Tmax in data set [7] was 4 h.

On to `CCCSc1nc(=O)cc(O)n1-c1ccccc1Cl`, for which the EC50 on Apelin receptor is 250 nM.

Consider `COc1ccccc1-n1c(O)cc(=O)nc1SCC(C)C`, for which, at Apelin receptor, the EC50 turned out to be 78 nM.

Regarding `CCCCSc1nc(=O)cc(O)n1-c1ccccc1OC`, on Apelin receptor, the EC50 amounted to 200 nM.

As for `CCCSc1nc(=O)cc(O)n1-c1cccc(OC)c1`, the EC50 at Apelin receptor came out at 940 nM.

As to `CCCSc1nc(=O)cc(O)n1-c1ccccc1C`, the EC50 at Apelin receptor was found to be 100 nM.

On to `CCCSc1nc(=O)c(CC)c(O)n1-c1ccccc1OC`, for which the concentration giving a half-maximal response (EC50) at Apelin receptor is 860 nM.

As for `CCCSc1nc(=O)cc(O)n1-c1ccccc1CC`, the EC50 at Apelin receptor was found to be 140 nM.

For the molecule `CCCSc1nc(=O)c(C(C)C)c(O)n1-c1ccccc1OC`, the EC50 on Apelin receptor was 450 nM.

For the molecule `CCCSc1nc(=O)cc(O)n1-c1ccccc1`, the Efficacy in [9] amounted to 100%. Besides, the EC50 at Apelin receptor was determined as 5000 nM.

Regarding `CCCCc1nc(=O)cc(O)n1-c1c(C)cccc1OC`, the AUC in data set [1] worked out at 10.2 µM·h. Further, the IC50 in data set [2] is more than 80000 nM; in [3], more than 20000 nM. Besides, the Papp in [4] was found to be 1 ×10⁻⁶ cm/s; in [5], 1.2 ×10⁻⁶ cm/s. In addition, the EC50 is 5 nM and 3 nM and 2 nM on Apelin receptor; more than 14000 nM in data set [8]. The molecule further registered a Cmax in data set [6] of 1.68 µM. For the same molecule, the Tmax in data set [7] was 4 h.

On to `CCCSc1nc(=O)cc(O)n1-c1cccc(C)c1`, for which the EC50 on Apelin receptor was determined as 290 nM.

Take `CCCSc1nc(=O)cc(O)n1-c1ccccc1F`: at Apelin receptor, the concentration giving a half-maximal response (EC50) stood at 160 nM.

In the case of `C=CCn1c(O)cc(=O)nc1SC(C)CC` (stereo not given), the Efficacy in [9] turned out to be 100%. Also, on Apelin receptor, the EC50 stood at 4400 nM.

`CCCSc1nc(=O)c(C)c(O)n1-c1ccccc1OC`: the EC50 at Apelin receptor stood at 1400 nM.

On to `CCCSc1nc(=O)cc(O)n1-c1ccccc1OCC`, for which, on Apelin receptor, the EC50 amounted to 100 nM.

`COc1ccccc1-n1c(O)cc(=O)nc1SC(C)C`: the EC50 at Apelin receptor was found to be 23 nM.

For the molecule `CCCCc1nc(=O)cc(O)n1-c1ccccc1OC`, the EC50 at Apelin receptor is 22 nM and 24 nM and 31 nM.

By EC50 is commonly meant the concentration needed to bring the measured effect to its halfway point. The AUC is the area under the concentration-time curve, a measure of exposure. By IC50 is commonly meant the midpoint of a concentration-inhibition curve. The low end stands for greater potency, the high end for weaker potency. A word on the Cmax: it is the maximum level reached in the sampled fluid or tissue. The Tmax is the time at which the peak concentration occurs.
